The solubility (thermodynamic) is solubility found after equilibrating the solid with the medium.

Converted amounts (≈) assume the structure as drawn.

The series is described as follows: physchem. Particulars: pH 7.4 buffer.
`C[C@@H]1CN(c2nc(N3CCOCC3)c3ccc(-c4ccccc4)nc3n2)C[C@H](C)O1` came in with a thermodynamic solubility of 1.8 µM (≈ 0.73 µg/mL).

For the compound `CC(=O)n1c2ccccc2c2cc(NC(=O)CCc3ccncc3)ccc21`, the solubility (thermodynamic) was found to be 2.1 µM (≈ 0.751 µg/mL).

For the compound `Nc1ncc(-c2cnn(CCO)c2)cc1-c1nc2ccccc2o1`, the solubility (thermodynamic) is 3.1 µM (≈ 0.996 µg/mL).

`Cc1cc2n[nH]c(=O)n2c2cc(-c3ccc([S+](C)[O-])cc3)ccc12` (stereo unspecified) gave a thermodynamic solubility of 1.9 µM (≈ 0.641 µg/mL).

In turn, `CN(c1ccnc(Nc2cccc(S(C)(=O)=O)c2)n1)c1c(Cl)ccc2c1OCO2` had a solubility (thermodynamic) of 3.5 µM (≈ 1.52 µg/mL).

For `COc1ccc2c(c1)Sc1ccccc1N2`, the thermodynamic solubility came to 2.4 µM (≈ 0.55 µg/mL).

`Cc1nc(O)c2cc(-c3ccccc3)sc2n1` registered a thermodynamic solubility of 1.8 µM (≈ 0.436 µg/mL).

With `O=S(=O)(Nc1ccccn1)c1ccc(C2CCCCC2)cc1`, the thermodynamic solubility stood at 2.8 µM (≈ 0.886 µg/mL). Compared with the last compound, the solubility thermodynamic is about 1.6-fold higher.

In turn, `CCn1c2ccccc2c2cc(NC(=O)c3cc(C)on3)ccc21` displayed a thermodynamic solubility of 2.5 µM (≈ 0.798 µg/mL).

Consider `COc1ccc([C@H](CC(=O)O)N2CCN(CCCc3ccc4c(n3)NCCC4)C2=O)cn1`, for which the thermodynamic solubility was found to be 2.5 µM (≈ 1.1 µg/mL).

On to `CCOC(=O)Cc1csc(NC(=O)Nc2ccc(Cl)cc2)n1`, for which the thermodynamic solubility is 2.6 µM (≈ 0.883 µg/mL).

For `CN(C(=O)c1ccco1)c1nnc(C23CC4CC(CC(C4)C2)C3)s1`, the thermodynamic solubility was found to be 3 µM (≈ 1.03 µg/mL). This solubility thermodynamic and that of the compound before are within 1.5-fold of each other.

With `c1ccc(-c2nc(-c3ccccc3)c(-c3ccccc3)o2)cc1`, the solubility (thermodynamic) was 1.9 µM (≈ 0.565 µg/mL).

Compound `O=S(=O)(NCc1cc(-c2ccccc2Cl)no1)c1ccc(Cl)cc1` registered a solubility (thermodynamic) of 3.1 µM (≈ 1.19 µg/mL).

`O=S(=O)(c1ccc(N2CCC(c3ccc(Cl)cc3)=N2)cc1)N(CCO)CCO` displayed a solubility (thermodynamic) of 2.2 µM (≈ 0.933 µg/mL).

In the case of `Cc1onc(-c2ccccc2)c1C(=O)OCC(=O)c1ccccc1`, the solubility (thermodynamic) was 2 µM (≈ 0.643 µg/mL).

The compound `CC(=O)Nc1nc(-c2ccc(Br)s2)cs1` yielded a solubility (thermodynamic) of 2.2 µM (≈ 0.667 µg/mL).

For the compound `CN(c1ccc(Cl)c(CO)c1)c1ccnc(Nc2cc(N3CCOCC3)cc(N3CCOCC3)c2)n1`, the thermodynamic solubility was 3.1 µM (≈ 1.58 µg/mL). This solubility thermodynamic and that of the compound before are within 1.5-fold of each other.

With `Cc1ccc(Oc2ccc(C(=O)N(C)Cc3ccncc3)cc2)cc1`, the thermodynamic solubility was 1.9 µM (≈ 0.632 µg/mL).

In turn, `COc1cc(N2CCCN(C(C)=O)CC2)ccc1Nc1ncc(Cl)c(-c2cnc3ccccn23)n1` gave a thermodynamic solubility of 2.4 µM (≈ 1.18 µg/mL).

Regarding `COc1cc(N2CC3COCC(C2)N3)ccc1Nc1ncc(Cl)c(-c2cnc3ccccn23)n1`, the solubility (thermodynamic) came to 2.6 µM (≈ 1.24 µg/mL).

In the case of `COc1cc(N2CCN(C(C)=O)CC2)ccc1Nc1ncc(Cl)c(-c2cnc3c(F)cccn23)n1`, the solubility (thermodynamic) stood at 2.8 µM (≈ 1.39 µg/mL).

`C[C@@H](c1ccc(-c2ccc(F)cc2F)cc1)N1CC[C@](CCO)(c2ccc(F)cc2)OC1=O` gave a solubility (thermodynamic) of 2.5 µM (≈ 1.14 µg/mL).

`COc1cc2ncnc(Nc3cc(NC(=O)c4ccccc4)c(Cl)cc3F)c2cc1OC`: the solubility (thermodynamic) is 1.9 µM (≈ 0.86 µg/mL). This solubility thermodynamic and that of the compound before are within 1.5-fold of each other.

As to `Cc1ccc(C(=O)C2CCN(S(=O)(=O)c3c(C)noc3C)CC2)cc1`, the thermodynamic solubility was found to be 2.1 µM (≈ 0.761 µg/mL).

The compound `Cc1ccc(C(=O)C(=O)c2ccc(C)cc2)cc1` came in with a thermodynamic solubility of 2.1 µM (≈ 0.5 µg/mL).

`COc1cc2ncnc(Nc3cnn(CC(=O)Nc4cccc(F)c4)c3)c2cc1OC` registered a solubility (thermodynamic) of 2 µM (≈ 0.845 µg/mL).

Compound `COc1cccc(NC(=O)Cn2cc(Oc3ncnc4cc(OC)c(OC)cc34)cn2)c1` registered a solubility (thermodynamic) of 2.9 µM (≈ 1.26 µg/mL). This solubility thermodynamic and that of the compound before are within 1.5-fold of each other.

In turn, `COCCOc1cc2c(Oc3cnn(CC(=O)Nc4cccc(OC)c4)c3)ncnc2cc1OC` displayed a solubility (thermodynamic) of 3.1 µM (≈ 1.49 µg/mL).

In the case of `COc1cccc(NC(=O)Cc2ccc(Oc3ncnc4cc(OC)c(OC)cc34)cc2)c1`, the solubility (thermodynamic) is 2 µM (≈ 0.891 µg/mL). Against the preceding compound, the solubility thermodynamic is about 1.6-fold lower.

In turn, `CN(C(=O)Cc1ccc(S(C)(=O)=O)cc1)[C@@H]1CCN(Cc2nc3cc(F)ccc3s2)C[C@@H]1F` displayed a thermodynamic solubility of 1.8 µM (≈ 0.888 µg/mL).

`CCn1cc(NC(=O)Cc2ccc(Oc3ccnc4cc(OC)ccc34)cc2OC)cn1` registered a thermodynamic solubility of 3.2 µM (≈ 1.38 µg/mL).

`COc1cc(Oc2ncnc3cc(OC)c(OC)cc23)ccc1CC(=O)Nc1cn(C)nc1C` returned a thermodynamic solubility of 1.8 µM (≈ 0.834 µg/mL).

`COc1ccc2c(Oc3ccc(CC(=O)Nc4cc(C)cc(CN(C)C)c4)c(OC)c3)ccnc2c1` gave a solubility (thermodynamic) of 1.8 µM (≈ 0.874 µg/mL).

`COc1cc2c(Nc3ccc(NC(=O)c4ccccc4)cc3)ncnc2cc1OCCCN1CCOCC1` gave a solubility (thermodynamic) of 2.5 µM (≈ 1.28 µg/mL).

`COc1cc(OC2CCN(C)CC2)c2c(Nc3ccc(F)c(Cl)c3)ncnc2c1` showed a solubility (thermodynamic) of 2.1 µM (≈ 0.875 µg/mL).

In the case of `O=C(Nc1ccc(N2CC[S+]([O-])CC2)nc1)c1nnc(Nc2ccccc2F)o1`, the solubility (thermodynamic) amounted to 2.5 µM (≈ 1.04 µg/mL).

With `C[C@H]1CN(C(=O)OC(C)(C)C)CCN1c1ncc(OCc2ccc(S(C)(=O)=O)cc2)cn1`, the solubility (thermodynamic) amounted to 2.3 µM (≈ 1.06 µg/mL).

With `C[C@@H]1CN(c2ncc(OCc3ccc(S(C)(=O)=O)cc3)cn2)CCN1C(=O)OC(C)(C)C`, the thermodynamic solubility was 3.3 µM (≈ 1.53 µg/mL).

In the case of `C[C@H]1CN(c2ncc(OCc3ccc(S(C)(=O)=O)cc3)cn2)CCN1C(=O)OC(C)(C)C`, the solubility (thermodynamic) is 2.2 µM (≈ 1.02 µg/mL).

`C[C@@H]1CN(C(=O)OC(C)(C)C)CCN1c1ncc(OCc2ccc(S(C)(=O)=O)cc2F)cn1` displayed a thermodynamic solubility of 2.2 µM (≈ 1.06 µg/mL).

Regarding `CCc1cc(Nc2nc(NCc3cc(-c4ccccn4)no3)ncc2Br)n[nH]1`, the solubility (thermodynamic) was found to be 3.8 µM (≈ 1.68 µg/mL).

`Cc1c(Cl)c(C(F)(F)F)nn1CC(=O)N1CCN(c2ccc(F)cc2)CC1` returned a thermodynamic solubility of 1.9 µM (≈ 0.769 µg/mL). This solubility thermodynamic lies about 2-fold lower than the previous one.

Compound `Cc1cc(C)cc(-c2[nH]c3sc(C(C)(C)C(=O)N4C5CCC4CC5)cc3c2CCN2CCC(CC(=O)N3CCOCC3)CC2)c1` came in with a thermodynamic solubility of 1.9 µM (≈ 1.2 µg/mL).

Compound `C[C@H](Oc1cccc2ncnc(Nc3ccc(OCc4ccccn4)c(Cl)c3)c12)C(=O)N(C)C` returned a thermodynamic solubility of 2.9 µM (≈ 1.39 µg/mL). Compared with the last compound, the solubility thermodynamic is about 1.5-fold higher.

On to `C[C@@H](Oc1cccc2ncnc(Nc3ccc4c(cnn4Cc4cccc(F)c4)c3)c12)C(=O)N(C)C`, for which the thermodynamic solubility was determined as 2.6 µM (≈ 1.26 µg/mL). This solubility thermodynamic and that of the compound before are within 1.5-fold of each other.

As for `Clc1cc(Nc2ncnc3[nH]nc(OCCN4CCOCC4)c23)ccc1OCc1ccccn1`, the thermodynamic solubility stood at 2 µM (≈ 0.964 µg/mL).

`CCN(C(=O)Cc1ccc(S(C)(=O)=O)cc1)C1CCN(CCC(c2ccccc2)c2ccc(NS(=O)(=O)Cc3ccccc3)cc2)CC1` (stereo unspecified) came in with a solubility (thermodynamic) of 2.3 µM (≈ 1.58 µg/mL). This solubility thermodynamic and that of the compound before are within 1.5-fold of each other.

As to `Cc1c(Br)sc2nc(O)c(-c3ccccc3)c(O)c12`, the thermodynamic solubility is 3.9 µM (≈ 1.31 µg/mL). This solubility thermodynamic is about 1.7-fold higher than that of the compound before.

`COC[C@@H](C(N)=O)N(C)Cc1cc2c(Nc3cccc(Cl)c3F)ncnc2cc1OC` came in with a solubility (thermodynamic) of 3.8 µM (≈ 1.7 µg/mL).

Compound `COc1cc2c(Nc3ncc(CC(=O)Nc4cccc(F)c4)s3)ncnc2cc1OCCCN1CCN(C)CC1` displayed a thermodynamic solubility of 1.8 µM (≈ 1.02 µg/mL). Compared with the last compound, the solubility thermodynamic is about 2.1-fold lower.

For the compound `Cc1ccc(Oc2ccc(Nc3ncnc4cccc(O[C@H](C)C(=O)N5CCOCC5)c34)cc2Cl)cn1`, the solubility (thermodynamic) is 2.3 µM (≈ 1.2 µg/mL). This solubility thermodynamic and that of the compound before are within 1.5-fold of each other.

Turning to `CN(C)C(=O)[C@H](Cc1ccccc1)NC(=O)c1cc2cc(Cl)ccc2[nH]1`, the thermodynamic solubility was 2.6 µM (≈ 0.962 µg/mL).

`COc1cc2ncnc(Nc3cc(O)c(C)cc3F)c2cc1OC` displayed a solubility (thermodynamic) of 2.2 µM (≈ 0.725 µg/mL).

As for `CCOC(=O)C1CCN(c2ncnc(Oc3ccc(CCC(C)=O)cc3)c2[N+](=O)[O-])CC1`, the solubility (thermodynamic) was 1.9 µM (≈ 0.841 µg/mL). This solubility thermodynamic and that of the compound before are within 1.5-fold of each other.

As to `CNS(=O)(=O)c1ccc(Nc2nccc(-c3cnc(C)n3C)n2)cc1`, the solubility (thermodynamic) stood at 2.7 µM (≈ 0.968 µg/mL).

For the compound `CC1(C)Oc2ncnc(N)c2N=C1c1ccc(C23CCC(C(=O)O)(CC2)CC3)cc1`, the thermodynamic solubility worked out at 3.2 µM (≈ 1.3 µg/mL).

Compound `COc1cc2nccc(Nc3ccc(Oc4ccccc4)cc3)c2cc1OC` yielded a solubility (thermodynamic) of 2.6 µM (≈ 0.968 µg/mL).

The compound `COc1cc2ncnc(Nc3ccc(F)c(Cl)c3)c2cc1OCCCn1ccnc1` returned a thermodynamic solubility of 2.5 µM (≈ 1.07 µg/mL).

As for `Nc1nc(Nc2ccc(Cl)cc2)cc(-c2ccccc2)n1`, the thermodynamic solubility is 2.2 µM (≈ 0.653 µg/mL).

Compound `O=C(Nc1cc(Cl)cc2c1[nH]c1cnccc12)c1cccnc1` returned a thermodynamic solubility of 3.9 µM (≈ 1.26 µg/mL).
